Reference: paper PMC12430429, “Synthesis, Structure, DNA/BSA Binding, DNA Cleaving, Cytotoxic and SOD Mimetic Activities of Copper(II) Complexes Derived from Methoxybenzylamine Schiff Base Ligands” (Molecules, 2025)

Experiments:
[1] = test system: ct-DNA; assay: DNA binding study by UV–Vis absorption titration; design: species or system calf; conditions: intraligand band ca. 370 nm on addition of ct-DNA
Procedure: The absorption spectra of complexes 4a–c (1 × 10^−[…]) were recorded in the presence of increasing amounts of ct-DNA. Intraligand absorption bands with λmax in the region 350 –380 nm were used to monitor the interaction of compounds with ct-DNA. The intraligand absorption value was chosen as λmax = […], so the absorbance of DNA would not interfere. The UV–Vis spectrum affected by DNA addition is shown for complexes 4a in Figure 3, and the UV–Vis spectra of other compounds are provided in the Supplementary Materials (Figure S3-1).
The DNA binding constants (Kb) of the complexes were determined by the Wolfe–Shimer equation (Equation (1)) and the respective plots (Figure 3 and Figure S3-1).
The interactions of prepared complexes 4a–c with ct-DNA have been studied by UV–Vis monitored titration. The ct-DNA solution was prepared by dissolving 6 mg of ct-DNA in 5 mL of citrate buffer (composed of 15 mM sodium citrate and 150 mM sodium chloride mixture solution, at pH = 7.0). The concentration of ct-DNA was then determined by UV–Vis spectroscopy with the molar absorption coefficient of ct-DNA at 260 nm (6600 M^−1cm^−1). The studied complexes were dissolved in DMSO, from which working solutions were prepared by dilution using citrate buffer solution. Increasing concentrations of ct-DNA were then added to a buffer/DMSO solution (<1% DMSO) of the corresponding complex (1 × 10^−[…]).
For the values of the binding strength of the interaction between the complex and the DNA molecule, binding constants Kb were calculated by the ratio of slope to the y intercept in the plots [DNA]/(εA-εf) compared to [DNA], according to the Wolfe–Shimer equation (Equation (1)):(1) [DNA]/(εA−εf)=[DNA]/(εb−εf)+1/Kb(εb−εf) where [DNA] is the concentration of DNA in base pairs, εf is the extinction coefficient of the free complex at the corresponding λmax, εA = Aobsd/[compound] and εb is the extinction coefficient of the complex in the fully bound form.

[2] = target: bovine serum albumin (BSA) (Bos taurus, UniProt P02769); assay: Bovine serum albumin binding (tryptophan fluorescence quenching); conditions: for dynamic quenching constant Ksv / quenching constant kq: BSA 3 μM, citrate buffer pH 7.0; for association binding constant KBSA / n (number of binding sites for albumin): Scatchard equation
Procedure: The fluorescence emission spectra of BSA show intense fluorescence emission at 336 nm upon excitation at 280 nm. This is due to the presence of two tryptophan residues (Trp134 and Trp212). Fluorescence quenching data were analyzed to obtain various binding parameters for the interaction of complexes 4a–c with BSA.
The interaction of complexes with serum albumin was characterized by the Stern–Volmer constant Ksv and the quenching constant kq, which was calculated using the Stern–Volmer equation (Figure S4-2) together with the associate binding constant KBSA and the number of binding sites per albumin n determined from the Scatchard equations (Equation (6), Figure S4-3); the values are summarized in Table 6.
The BSA binding of complexes 4a–c was studied by tryptophan fluorescence emission quenching experiments using BSA (3 μM) in citrate buffer solution (containing 15 mM trisodium citrate and 150 mM sodium chloride at pH 7.0). The emission intensity quenching of BSA tryptophan residues at 336 nm was measured by increasing the concentration of the quencher complexes 4a–c. The concentration of the added complexes ranged from 0 to 0.2 mM. The fluorescence emission spectra were recorded in the 300–420 nm range and with an excitation wavelength of 280 nm. The values of the Stern–Volmer constant KSV (in M^−1), the BSA binding constant K (in M^−1) for the compound–BSA interaction and the BSA quenching constant kq (in M^−1 s^−1) have been calculated from the Stern–Volmer (Equations (2)–(4)). and Scatchard equations (Equation (6)):(6) ΔI/Io/[Q]=nK−KΔI/Io
The BSA binding constant K (in M^−1) can be calculated from the slope of the Scatchard plots, and the number of binding sites per albumin (n) is given by the ratio of the y intercept to the slope.

[3] = test system: HepG2 cells; assay: MTT cytotoxicity assay, HepG2; format: cell-based, human; conditions: 72 h
Procedure: The cytotoxicity study of the prepared copper(II) complexes was performed using the MTT assay on human cell lines—A549 (adenocarcinoma human alveolar basal epithelial cell line), HepG2 (human liver cancer cell line) and HEL (human lung fibroblast cell line, normal cells).
The cytotoxicity of the prepared copper(II) complexes in human cell lines was evaluated using the 3-(4,5-dimethylthiazol-2-yl)-2,5-diphenyltetrazolium bromide (MTT) assay following the protocol by Mosmann. Briefly, A549 (human lung epithelial cells, carcinoma), HepG2 (human liver epithelial cells, carcinoma) and HEL (human lung fibroblast cells, normal) cells were seeded in plastic 96-well plates at a density of 1.5–2 × 10^4 cells per well. […] After the treatment, the samples were washed with phosphate-buffered saline (PBS), followed by 4 h of incubation with 1 mg/mL of MTT. Subsequently, the MTT solution was removed, and the formed formazane solids were dissolved in dimethyl sulfoxide for 30 min. The photometric evaluation (at 540 nm and 690 nm) was carried out using an xMark™ Microplate Absorbance Spectrophotometer (Bio-Rad, Hercules, CA, USA) [88].
A549 (ATCC® CCL-185), HepG2 (ATCC® HB-8065) and HEL299 (ATCC® CCL-137) cells were obtained from Lambda Life (Bratislava, Slovakia). A549 cells were kept in Dulbecco’s Modified Eagle’s Medium (DMEM) supplemented with 10% fetal bovine serum (FBS) and 1% antibiotics (penicillin and streptomycin). HepG2 cells were kept in Williams medium supplemented with 10% fetal bovine serum (FBS) and 1% antibiotics (penicillin and streptomycin). HEL299 cells were kept in Minimum Essential Medium (MEM) supplemented with 10% fetal bovine serum (FBS), 1% antibiotics (penicillin and streptomycin) and 1% non-essential amino acids (NEAA). The cells were cultured in a humidified atmosphere of 5% CO2 at 37 °C. Once the cells reached approximately 80% confluence, they were harvested and subcultured after trypsin treatment.

bovine serum albumin (BSA), sequence (P02769 25-607): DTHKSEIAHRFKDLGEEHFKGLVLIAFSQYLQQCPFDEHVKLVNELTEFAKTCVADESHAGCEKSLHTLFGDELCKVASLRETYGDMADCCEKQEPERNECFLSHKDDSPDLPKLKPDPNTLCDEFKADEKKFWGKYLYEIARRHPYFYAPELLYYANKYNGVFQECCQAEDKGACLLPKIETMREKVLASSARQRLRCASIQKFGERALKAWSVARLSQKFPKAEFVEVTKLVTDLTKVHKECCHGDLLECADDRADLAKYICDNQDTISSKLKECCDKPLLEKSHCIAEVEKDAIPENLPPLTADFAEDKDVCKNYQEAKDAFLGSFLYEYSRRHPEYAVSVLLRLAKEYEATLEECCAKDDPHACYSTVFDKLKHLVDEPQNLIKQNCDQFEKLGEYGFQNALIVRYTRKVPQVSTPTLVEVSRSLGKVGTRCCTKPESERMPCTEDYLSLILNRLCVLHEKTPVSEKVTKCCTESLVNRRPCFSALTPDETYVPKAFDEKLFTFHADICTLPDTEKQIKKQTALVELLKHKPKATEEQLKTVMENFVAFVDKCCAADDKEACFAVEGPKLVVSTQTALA

SMILES	decrease of intensity (ΔA/A0), hypochromism [1] [%]	dynamic quenching constant Ksv [2]	quenching constant kq [2]	association binding constant KBSA [2]	n (number of binding sites for albumin) [2]	IC50 [3] [µM]
COc1ccccc1CN=Cc1ccccc1[O-].COc1ccccc1CN=Cc1ccccc1[O-].[Cl-].[Cl-].[Cu+2].[Cu+2] [Complex 4a, [Cu2 (Sal-2-MeOBn)2 Cl2]]	32	7.16 (±0.03) M^−1 × 10^4	7.16 (±0.03) M^−1s^−1 × 10^12	6.66 (±0.30) M^−1 × 10^4	1.03	17.9 ± 2.6
COc1cccc(CN=Cc2ccccc2[O][Cu][O]c2ccccc2C=NCc2cccc(OC)c2)c1 [Complex 4b, [Cu (Sal-3-MeOBn)2]]	26	6.39 (±0.06) M^−1 × 10^4	6.39 (±0.06) M^−1s^−1 × 10^12	5.37 (±0.25) M^−1 × 10^4	0.94	32.8 ± 4.9
COc1ccc(CN=Cc2ccccc2[O-])cc1.COc1ccc(CN=Cc2ccccc2[O-])cc1.[Cl-].[Cl-].[Cu+2].[Cu+2] [Complex 4c, [Cu2 (Sal-4-MeOBn)2 Cl2]]	28	4.86 (±0.15) M^−1 × 10^4	4.86 (±0.15) M^−1s^−1 × 10^12	4.77 (±0.20) M^−1 × 10^4	1.16	21.6 ± 4.9
